Data on four substances can be found in publication PMC10016038, “Enhanced Endosomal Signaling and Desensitization of GLP-1R vs GIPR in Pancreatic Beta Cells” (Endocrinology, 2023).

One assay concerns T2D patients. The settings on record: dual GLP-1R/GIPR targeting peptides; cited from earlier work. An excerpt: Incretin receptors, comprising the glucagon-like peptide-1 receptor (GLP-1R) and the glucose-dependent insulinotropic polypeptide receptor (GIPR), are key components of the glucoregulatory system due to their capacity to prevent postprandial hyperglycemia by amplifying insulin secretion from pancreatic beta cells in a glucose-dependent manner ([1]). Since their discovery and cloning in the 1990s ([2-4]), both receptors have been recognized for their glucose lowering potential. However, while the GLP-1R has successfully been exploited for the treatment of type 2 diabetes (T2D), with several pha ...

A further assay has as its system GLP-1R. The settings on record: tirzepatide; cited from earlier work. The text has this:
In summary, we have described here significant differences in the trafficking and spatiotemporal signaling propensities of the 2 incretin receptors following their stimulation with native agonists in beta cells. While the GLP-1R is a rapidly internalizing receptor with increased propensity for β-arrestin 2 recruitment, endosomal localization and activity, and lysosomal degradation, the GIPR is associated with reduced coupling to G proteins and β-arrestin 2, as well as reduced internalization and endosomal activity, increased recycling, and an overall increase in beta cell signaling despite hig ...

Assay [1] relates to SNAP-tagged human GIPR. In words: Confocal microscopy of co-internalization with FITC agonist, SNAP-GIPR. Type of assay: cell-based. The text has this:
(§1) Figure 1. Beta cell GLP-1R vs GIPR trafficking patterns. […] (B) Rates of GLP-1R vs GIPR internalization (k values) derived from (A) by one-phase association (with Y0 = 0) of baseline-deleted DERET data; n = 5. (C) GLP-1R vs GIPR internalization dose response curves measured by high-content microscopy assay (HCA) in the same cells as above. […] (F) Quantification of surface GLP-1R vs GIPR levels in WT mouse islets using fluorescent agonist uptake data from (E); data corrected for binding affinity differences between both agonists; n = 4. (G) GLP-1R vs GIPR recycling dose response curves measured by high-content microscopy assay (HCA) in cells from (C); n = 5. […] Nuclei (DAPI), blue. Data are mean ± SEM, compared by paired or unpaired t tests, or two-way ANOVA with Sidak's post hoc test; *P < .05, **P < .01, ***P < .001; size bars: 10 µm.
(§2) Finally, using alternative fluorescent conjugates labeled with TMR, the amount of TMR-labeled agonist intracellular accumulation during the first 5 minutes of stimulation for each receptor correlated with the previously shown receptor internalization results in INS-1 832/3 SNAP-GLP-1R/SNAP-GIPR cell lines (Supplemental Fig. 3A and 3B) ([32]).

The test system of assay [2] is endogenous GIPR in mouse islets. In words: Confocal imaging of TMR agonist in mouse primary islets, GIPR. Type of assay: cell-based. Here is the method: (§3) Nondiabetic mice of both sexes were used for islet isolation. Briefly, pancreata were infused via the common bile duct with RPMI-1640 medium containing 1 mg/mL collagenase from Clostridium histolyticum (Nordmark Biochemicals), dissected, and incubated in a water bath at 37 °C for 10 minutes. Islets were subsequently washed and purified using a Histopaque gradient (Histopaque-1119, 11191, Sigma-Aldrich, and Histopaque-1083, 10831, Sigma-Aldrich). Isolated islets were allowed to recover overnight at 37 °C in 5% CO2 in RPMI-1640 supplemented with 10% FBS and 1% penicillin/streptomycin. All procedures were carried out in accordance with the regulations of the UK Home Office Animals (Scientific Procedures) Act and the Imperial College London guidelines for animal care. Animal protocols were approved by the Home Office Animals in Science Regulation Unit (ASRU) under Project License number PP7151519 to Dr. A. Martinez-Sanchez.
as §1

For assay [3], the system named is SNAP-tagged human GIPR. In words: TMR agonist intracellular accumulation, INS-1 832/3 SNAP-GIPR. The settings on record: 5 minutes poststimulation. Type of assay: cell-based. Here is the method: as §2
Assay [4] relates to endogenous GLP-1R in mouse islets. In words: Confocal imaging of TMR agonist in mouse primary islets, GLP-1R. The class given is cell-based. The following applies: 100 nM GLP-1-TMR; 15 minutes. The procedure:
as §3
Figure 1. […] (C) GLP-1R vs GIPR internalization dose response curves measured by high-content microscopy assay (HCA) in the same cells as above. […] (F) Quantification of surface GLP-1R vs GIPR levels in WT mouse islets using fluorescent agonist uptake data from (E); data corrected for binding affinity differences between both agonists; n = 4. (G) GLP-1R vs GIPR recycling dose response curves measured by high-content microscopy assay (HCA) in cells from (C); n = 5. […]

Ends that are not written are not given here.

Regarding tirzepatide, the “Efficacy compared with approved GLP-1R agonist monotherapies” value with T2D patients was “enhanced efficacy”. Moreover, in the assay on GLP-1R, the “Internalization and β-arrestin 2 recruitment at the GLP-1R” value is “reduced internalization and β-arrestin 2 recruitment at the GLP-1R”.
In the case of “GIP-FITC: fluorescein isothiocyanate (FITC) conjugate of GIP(1-42) (YAEGTFISDYSIAMDKIHQQDFVNWLLAQKGKKNDWKHNITQ; also: FITC conjugate, position not given here)”, in the assay with SNAP-tagged human GIPR [1] (30 min, 100 nM GIP-FITC), the SNAP-GIPR endocytosis result is recorded as “only partial SNAP-GIPR endocytosis”. Further, the “Intracellular GIP-FITC signal accumulation” value in the assay on SNAP-tagged human GIPR [1] (after 30 minutes of agonist stimulation) is listed as “some intracellular GIP-FITC signal accumulation”.
For “GIP-TMR: tetramethylrhodamine (TMR) conjugate of GIP(1-42) (YAEGTFISDYSIAMDKIHQQDFVNWLLAQKGKKNDWKHNITQ; also: TMR conjugate, position not given here)”, the “GIP-TMR signal in islets at 100 nM” value in assay [2] (100 nM, not shown) is listed as “virtually undetectable”. For the same substance, the “Localization of TMR agonist in WT mouse primary islets” value in assay [2] (1 µM GIP-TMR, 15 minutes) is “could be detected at the plasma membrane”. Moreover, the “GIP-TMR uptake compared with GLP-1-TMR, dispersed mouse islet cells” value in assay [2] (dispersed mouse islet cells) is “markedly reduced”. Further, the “TMR agonist signal in WT islets, GIP-TMR vs GLP-1-TMR” value in assay [2] (quantified in Fig. 1F, corrected for binding affinity differences, n = 4) is on record as “significantly lower”. For the same substance, in assay [2] (same concentration of GIP-TMR as WT (1 µM), specificity control), the “GIP-TMR signal at the plasma membrane, Gipr-/- (KO) islets” value is “absent”. Besides, in the assay with SNAP-tagged human GIPR [3], the “Intracellular accumulation of TMR-labeled agonist” value is recorded as “negligible”.
“GLP-1-TMR: tetramethylrhodamine (TMR) conjugate of GLP-1(7-36)NH2 (HAEGTFTSDVSSYLEGQAAKEFIAWLVKGR-NH2; also: TMR conjugate, position not given here)”: in assay [4], the “Localization of TMR agonist in WT mouse primary islets” value is “predominantly localized in punctate structures reminiscent of endosomes”.
